Values of other authors in patent US10934405B2, “Synthetic polymer film whose surface has microbicidal activity, plastic product which includes synthetic polymer film, sterilization method with use of surface of synthetic polymer film, photocurable resin composition, and manufacturing method of synthetic polymer film” (Sharp Kabushiki Kaisha, priority 2018, dated 2021).

Details: for Water Solubility: YES/NO, TABLE 1A and 1B

polyethylene glycol (200) diacrylate [Example M282]
Water Solubility: YES

polyethylene glycol (400) diacrylate [Example M280]
Water Solubility: YES

C=COCCOCCOC(=O)C=C [VEEA, 2-(2-vinyloxyethoxy)ethyl acrylate]
Water Solubility: YES

Nc1nc2ncc(CNc3ccc(C(=O)N[C@@H](CCC(=O)O)C(=O)O)cc3)nc2c(=O)[nH]1 [folic acid]
Water Solubility (symbol) (TABLE 6A and 6B): ◯
